# Active and inactive are the calls of the source. Rule as the data show it, for most assays here: actives have a measured EC50 and inactives only a lower limit.
# Experiments:
# [1] = viability of uninfected HEp-2 cells – cell-based, HTS, cytotoxicity control for RSV inhibitor project, dose response (AID 2410); format: functional; details: human respiratory syncytial virus
# Vero = test: cells; format: functional, cell-based; details: Chlorocebus sabaeus
# Escherichia coli [2] = test: microbe, parasite or virus in culture
# Escherichia coli [3] = test: microbe, parasite or virus in culture; remark: listed apart in the source
# [4] = target: T1, Heat shock factor protein 1 (Mus musculus, UniProt P38532); test: decrease of HSF1-responsive luciferase luminescence – cell-based, NIH3T3, dose retest, confirmation (AID 2382); format: functional;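 also: NIH3T3 fibroblasts with HSF1-driven luciferase reporter stressed by proteasome inhibitor MG132; luminescence from HSF1-driven luciferase expression after 8 hours of MG132 stress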
# T1 sequence (P38532 whole entry): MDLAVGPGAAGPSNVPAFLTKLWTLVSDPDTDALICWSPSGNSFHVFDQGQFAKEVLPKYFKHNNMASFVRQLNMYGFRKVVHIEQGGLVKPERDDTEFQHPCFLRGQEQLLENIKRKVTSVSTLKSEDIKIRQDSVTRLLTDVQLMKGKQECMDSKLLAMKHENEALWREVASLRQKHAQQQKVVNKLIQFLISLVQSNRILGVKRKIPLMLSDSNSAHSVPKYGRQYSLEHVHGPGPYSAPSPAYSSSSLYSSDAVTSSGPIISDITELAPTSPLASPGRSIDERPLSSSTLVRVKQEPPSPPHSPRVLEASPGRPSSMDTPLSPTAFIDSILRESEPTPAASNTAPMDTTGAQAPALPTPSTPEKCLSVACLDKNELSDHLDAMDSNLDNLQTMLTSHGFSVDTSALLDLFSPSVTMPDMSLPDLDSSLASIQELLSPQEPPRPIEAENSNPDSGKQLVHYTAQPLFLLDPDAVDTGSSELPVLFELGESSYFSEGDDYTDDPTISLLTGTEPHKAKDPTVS
# [5] = target: Luciferin 4-monooxygenase (Photuris pensylvanica, UniProt Q27757); test: inhibition of Cell Titer Glo luciferase signal – biochemical, luminescence, cherry-picks, counter-screen for HSF-1 reporter inhibitor project, dose response (AID 588847)
# HT-1080 = test: HT1080 cell viability loss – fluorescence readout (AID 620); format: functional, cell-based; details: Homo sapiens
# HEK293 = test: EBV LMP1 TES2 canonical NF-kB signalling blockers – cell-based, HEK293, luciferase, cherry-pick, dose response (AID 588343); format: functional; details: Homo sapiens
# [6] = target: Luciferin 4-monooxygenase (Photinus pyralis, UniProt P08659); test: Counter Screen for Luciferase-based Assay Positives. [Related pubchem assays: 620, 618, 411 ]
# Phospholipase A2 = Phospholipase A2 (Homo sapiens, UniProt P04054); test: phospholipase A2 activity inhibition – biochemical, set 2, counter-screen for ATG4B inhibitor project, dose response (AID 588586); format: functional
# BJ [7] = test: cells; format: functional, cell-based; details: Homo sapiens
# [8] = Luminescence Cell-Based Dose Response HTS to Identify Inhibitors of 5'UTR Stem-Loop Driven Prion Protein mRNA Translation in H4 Neuroglioblastoma Cells. [Related pubchem assays: 1827 (Project Summary), 1813 (Primary HTS)]; format: functional
# BJ [9] = test: growth inhibition of engineered Ras-driven BJ cells – cell-based, alamar blue fluorescence, cherrypicked samples, dose response (AID 2631); format: functional; details: Homo sapiens;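 also: confirmatory dose-response assay in RAS-dependent BJ fibroblasts engineered with TERT, LT and ST, with cytotoxicity read by fluorescence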
# [10] = luciferase reporter signal suppression in cells – H4 neuroglioma cells, luminescence, dose response (AID 1990); format: functional, cell-based
# [11] = alpha-synuclein stem-loop translation blockers – luminescence, H4 neuroglioblastoma cells, dose confirmation, confirmation (AID 2454); format: functional, cell-based;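 also: H4 neuroglioblastoma cells carrying an alpha-synuclein 5'UTR luciferase reporter; potency for inhibition of the luciferase signal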
# [12] = luciferase reporter signal reduction – luminescence, H4-C neuroglioblastoma cells, dose response (AID 2458); format: functional, cell-based;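 also: H4 neuroglioblastoma cells stably carrying a luciferase reporter gene fusion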
# Cysteine protease ATG4B = target: T2, Cysteine protease ATG4B (Homo sapiens, UniProt Q9Y4P1); test: autophagin-1 cysteine protease inhibition – biochemical, fluorescence, set 2, dose response (AID 588584); format: functional
# T2 sequence (Q9Y4P1 whole entry): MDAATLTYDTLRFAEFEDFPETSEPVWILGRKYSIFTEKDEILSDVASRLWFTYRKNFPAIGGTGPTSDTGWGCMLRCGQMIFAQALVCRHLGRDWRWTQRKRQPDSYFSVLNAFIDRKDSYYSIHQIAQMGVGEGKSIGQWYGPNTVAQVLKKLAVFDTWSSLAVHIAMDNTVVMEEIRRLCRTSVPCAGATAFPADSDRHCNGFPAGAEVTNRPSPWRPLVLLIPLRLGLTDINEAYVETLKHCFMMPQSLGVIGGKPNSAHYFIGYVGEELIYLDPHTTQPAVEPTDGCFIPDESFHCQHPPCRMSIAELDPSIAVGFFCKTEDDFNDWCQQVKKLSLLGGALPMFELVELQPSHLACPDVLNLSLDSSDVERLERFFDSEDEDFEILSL
# [13] = alpha-synuclein stem-loop luciferase translation blockers – H4 neuroglioma cells, luminescence, confirmation (AID 1988); format: functional, cell-based
# BJ [14] = test: BJ-TERT-LT-ST fibroblast viability loss – cell-based, RAS-independent, luminescence, dose response (AID 1935); format: functional; details: Homo sapiens;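 also: BJ fibroblasts immortalized with TERT plus LT and ST oncogenes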
# cells = format: functional, cell-based
# [15] = DRD fibroblast viability loss – cell-based, non-viral oncogenic, luminescence, dose response (AID 1934); format: functional; details: Homo sapiens
# Phospholipase A2, sequence (P04054 whole entry): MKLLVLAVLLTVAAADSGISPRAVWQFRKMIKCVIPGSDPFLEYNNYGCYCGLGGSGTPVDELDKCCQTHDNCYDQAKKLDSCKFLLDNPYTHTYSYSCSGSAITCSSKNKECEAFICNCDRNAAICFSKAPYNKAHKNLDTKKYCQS
# Luciferin 4-monooxygenase (Photinus pyralis, UniProt P08659), sequence (P08659 whole entry): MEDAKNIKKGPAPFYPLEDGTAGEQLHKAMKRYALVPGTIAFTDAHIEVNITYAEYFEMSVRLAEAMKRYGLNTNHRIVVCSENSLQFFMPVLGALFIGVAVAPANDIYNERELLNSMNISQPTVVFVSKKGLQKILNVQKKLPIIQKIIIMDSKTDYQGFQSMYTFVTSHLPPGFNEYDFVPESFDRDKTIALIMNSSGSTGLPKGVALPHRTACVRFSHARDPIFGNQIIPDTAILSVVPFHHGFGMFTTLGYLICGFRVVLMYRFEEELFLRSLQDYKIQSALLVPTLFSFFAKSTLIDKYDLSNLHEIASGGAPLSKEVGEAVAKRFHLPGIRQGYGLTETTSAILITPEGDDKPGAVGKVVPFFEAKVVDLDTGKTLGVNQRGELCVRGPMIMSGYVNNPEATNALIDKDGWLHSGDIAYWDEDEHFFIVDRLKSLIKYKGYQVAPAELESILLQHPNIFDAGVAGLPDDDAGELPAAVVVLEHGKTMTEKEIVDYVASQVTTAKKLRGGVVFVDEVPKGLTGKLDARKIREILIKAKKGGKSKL
# Luciferin 4-monooxygenase (Photuris pensylvanica, UniProt Q27757), sequence (Q27757 whole entry): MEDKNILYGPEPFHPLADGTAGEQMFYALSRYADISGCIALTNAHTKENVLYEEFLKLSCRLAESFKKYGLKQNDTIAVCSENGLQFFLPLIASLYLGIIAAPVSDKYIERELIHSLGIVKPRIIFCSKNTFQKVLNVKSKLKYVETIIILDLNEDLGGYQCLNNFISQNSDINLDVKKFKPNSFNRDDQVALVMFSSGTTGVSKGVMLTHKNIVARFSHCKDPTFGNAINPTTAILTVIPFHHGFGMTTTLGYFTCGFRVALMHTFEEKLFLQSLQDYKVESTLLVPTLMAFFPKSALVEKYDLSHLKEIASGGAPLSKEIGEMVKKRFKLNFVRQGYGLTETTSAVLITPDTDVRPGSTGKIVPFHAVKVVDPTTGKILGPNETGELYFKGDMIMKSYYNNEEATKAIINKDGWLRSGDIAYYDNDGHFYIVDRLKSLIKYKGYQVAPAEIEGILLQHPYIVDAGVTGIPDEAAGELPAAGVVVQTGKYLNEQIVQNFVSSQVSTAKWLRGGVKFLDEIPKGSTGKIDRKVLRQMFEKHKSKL
smiles,measurement,setting,value
Cc1cccc(NC(=O)CSc2nc3ccccc3nc2N2CCCC2)c1,CC50,[1],13.7 µM (active)
same,IC50,Vero,> 25 µM (active)
CCN(CC)CC(=O)c1c[nH]c2ccc(OC)cc12,AC50,Escherichia coli [2],25.6 µM (active)
same,AC50,Escherichia coli [3],26.5 µM (active)
CC(C)(C)c1ccc(/C=N/Nc2cccc(C(=O)O)c2)cc1,EC50,[4],< 160 nM (active)
same,AC50,[5],3.37 µM (active)
Cc1nc(Nc2nc3ccccc3o2)nc2c1CCC2,EC50,HT-1080,> 50 µM (not active)
same,AC50,HEK293,2.54 µM (active)
same,EC50,[6],5.88 µM (active)
CCC1=Nc2cc(C(=O)NCc3ccco3)ccc2Sc2ccc(C)cc21,IC50,Phospholipase A2,51.7 µM (inactive)
same,EC50,BJ [7],13.1 µM (inconclusive)
same,EC50,[8],243 nM (active)
same,EC50,BJ [9],< 104 nM (active)
same,EC50,[10],250 nM (active)
same,EC50,[11],> 12 µM (inconclusive)
same,EC50,[12],756 nM (active)
same,IC50,Cysteine protease ATG4B,> 80 µM (inactive)
same,EC50,[13],< 100 nM (active)
same,EC50,BJ [14],597 nM (active)
same,EC50,cells,919 nM (active)
same,EC50,[15],496 nM (active)
